Results from patent US20120225889A1, “USE OF MACROCYCLIC LACTONE DERIVATIVES FOR THE TREATMENT OF INFLAMMATORY DISORDERS” (PIRAMAL LIFE SCIENCES LIMITED, priority 2010, published 2012).
pIC50: −log10 of the molar value. Like-named read-outs stand apart in the source and are kept apart here.

Legend:
TNF-α = experiment: Human monocyte assay (LPS-induced): TNF-α; format: cell-based; settings: LPS stimulated human monocytes, 5 h
Source text: The assay was designed as in reference, Physiological Research, 52, 593-598, (2003), the disclosure of which is incorporated by reference for the teaching of the assay.
The objective of the assay is to determine whether compounds of the present invention—mediated inhibition of LPS-induced cytokines from monocytic THP-1 cell line translates to physiologically relevant human cells. Accordingly, the effect of compounds of the present invention on LPS—induced cytokine production from freshly isolated human monocytes was ascertained.
Peripheral blood was collected from healthy donors into potassium EDTA vacutainer tubes (BD Biosciences, USA). hPBMCs were isolated using density gradient separation (Histopaque-1077; Sigma, USA) and suspended in assay medium which is RPMI culture medium (Sigma, USA) containing 10% heat inactivated FBS (JRH Biosciences, Australia), 100 U/mL penicillin (Sigma, USA) and […] streptomycin (Sigma, USA). Monocytes in the hPBMCs were counted using a Coulter Counter following which the cells were resuspended at 2×10^5 monocytes/mL of assay medium. A cell suspension containing 2×10^4 monocytes was aliquoted per well of a 96-well plate (Nunc, USA). Subsequently, the hPBMCs were incubated for 4-5 h at 37° C., 5% CO2. […] The IC50 values were calculated by a nonlinear regression method using Graph Pad software (Prism 3.03).

CEBPδ = experiment: Gene expression profile using RTQ-PCR: CEBPδ; format: cell-based, human; settings: 3 μM
Experimental: (§1) The effect of the compound of example 7 was measured in stimulated untreated cells from the monocytic cell line (THP-1), human monocytes and synovial cells from rheumatoid arthritis patient. The effect of the compound in the THP-1 cell line was measured in terms of gene expression and was expressed as fold changes as compared to the cell stimulated control with no drug treatment.
(§2) THP-1 cells, human monocytes and synovial cells were treated with compound of example 7 or vehicle (0.5% DMSO). Total RNA isolation using a commercial RNA extraction kit (Qiagen Corporation, Germany) The first-strand cDNA was synthesized from total RNA using first strand cDNA synthesis kit from Invitrogen Corporation (California, USA). This was followed by real time quantitative polymerase chain reaction (RTQ PCR) using gene specific primers and standard thermal program of initial denaturation at 95° C. for 5 min and cycles of 95° C. for 10 seconds, followed by 60° C. for 30 seconds (Realplex PCR machine from Eppendorf, Germany). Quantitative measurement of products made during PCR cycles was normalized against a housekeeping gene (Actin) and was used to measure the gene expression as fold changes as compared to respective control.

MyD88 = experiment: Gene expression profile using RTQ-PCR: MyD88; format: cell-based, human; settings: 3 μM
Experimental: as §1, §2

hPBMCs = experiment: Lymphocyte proliferation assay (T-cell proliferation of normal hPBMCs); format: cell-based; settings: Homo sapiens
Source text: The assay method was designed as in references, The Journal of Immunology, 153, 1-9, (1994), and Clinical and Diagnostic Laboratory Immunology, 7, 687-692, (2000), the disclosure of which is incorporated by reference for the teaching of the assay.
hPBMCs were obtained from healthy donors by centrifugation of heparinized venous blood over Ficoll/Hypaque solution (Histopaque-1077, Sigma, USA). Isolated hPBMCs were suspended in RPMI 1640 culture medium supplemented with 10% FBS and seeded at a density of 50,000 cells/well in a 96-well plate (Nunc, USA). The cells were incubated at 37° C., 5% CO2 for a period of 24 h. These cells were used for the lymphocyte proliferation as well as cytokine release assay.
The plated cells were treated with different concentrations of the test compound (prepared as 20 mM stock in DMSO and diluted with DMSO to achieve the following final concentrations in the assay: 100, 10, 1, 0.1, 0.01, 0.001 and 0.0001 μM) and were incubated for 30 min. The cells were then stimulated with 5 ng/mL PMA (Sigma, USA, prepared as 100 μg/mL stock in RPMI and was diluted to 5 ng/mL) and 5 μg/mL PHA (Sigma, USA, prepared as a 1 mg/mL stock in RPMI). The plates were incubated at 37° C., 5% CO2 for 48 h. The cells were treated overnight with 0.1 μCi of tritiated thymidine per well (obtained from BARC, India; prepared as stock of 1 mCi/mL) and was diluted in KRPH buffer to 10 μCi/mL and […] and was added per well to obtain a final concentration 0.1 μCi/well) and at the end of 48 h, the anti-proliferative effect of the compound was measured using the following formula: […]
Controls consisted of hPBMCs with PHA and PMA (Stimulated), hPBMCs with RPMI (Un-stimulated), hPBMCs with FK506 (positive control, Sigma, USA, prepared as 20 mM stock in DMSO and diluted with DMSO to achieve the following final concentrations in the assay: 100, 10, 1, 0.1, 0.01, 0.001 and 0.0001 μM).

[1] = Human monocytes, 3 h, ± SE, N = 3

With C/C=C/C(O)C(C)/C=C/C(=N\O)C(C)C(O)C(C)C1OC(=O)/C(OC)=C/C(C)=C/C(C)C(O)C(CC)C(O)C(C)C/C(C)=C/C=C/C1OC (stereo not drawn) [Compound of example 7, (3Z,5E,13E,15E)-18-((5Z,6E,10E)-3,9-Dihydroxy-5-(hydroxymino)-4,8-dimethyldodeca-6,10-dien-2-yl)-9-ethyl-8,10-dihydroxy-3,17-dimethoxy-5,7,11,13-tetramethyl oxacyclooctadeca-3,5,13,15-tetraen-2-one] the pIC50 (TNF-α) was 5.00, the CEBPδ gene expression (CEBPδ; [1]) was −1.4 + 0.4 log fold change and the CEBPδ gene expression (CEBPδ; Synovial cells, 12 h, N = 1) was −1.1 log fold change. For the same molecule, the CEBPδ gene expression (CEBPδ; THP-1 cells, 12 h, ± SE, N = 3) was −1.8 + 1.0 log fold change, the MyD88 gene expression (MyD88; [1]) was −0.2 + 1.9 log fold change and the MyD88 gene expression (MyD88; Synovial cells, 12 h, N = 1) was −0.5 log fold change. The MyD88 gene expression (MyD88; THP-1 cells, 12 h, ± SE, N = 3) was −0.2 + 0.2 log fold change, the pIC50 (hPBMCs; read-out: Stimulated hPBMC's IC50 (inhibition of cell proliferation)) was 8.52 and the pIC50 (hPBMCs; read-out: Unstimulated hPBMC's IC50 (inhibition of cell proliferation)) was 5.30.
